# Reference: patent US10092589B2, “Anti-tumor agent containing anti-tumor platinum complex, and anti-tumor effect enhancer” (Taiho Pharmaceutical Company Limited, priority 2014, dated 2018)
# Marks after values point to notes of the source that are not given here.
# Key:
# [1] = Carboplatin tolerability in mice with no cancer (Reference Example 3); format: in vivo, BALB/cA Jcl-nu mice; conditions: tail vein, Day 1
# Protocol: To BALB/cA Jcl-nu mice with no cancer (5 mice in each group), carboplatin (CBDCA) was administered at 50, 70, 100, 140, or 200 mg/kg/day through the tail vein on Day 1. In the groups treated with the doses of 140 mg/kg/day or more, strong body weight reductions of 20% or more and death cases were observed. The recommended dose of carboplatin for mice was thus 100 mg/kg/day.
# [2] = system: human lung cancer cell line (Lu-134); assay: Lu-134 xenograft, FTD·TPI combination drug and carboplatin (Example 2); format: in vivo; conditions: Day 29, tail vein Day 1 and Day 8
# Protocol: (§1) As an index of the anti-tumor effect, the TVs on Days 5, 8, 11, 15, 19, 22, 26, and 29 were calculated in each group. In accordance with the following equation, the relative tumor volume (RTV) to that on Day 0 was calculated and compared with the RTV of the untreated group (control).
# (§2) The tumor growth inhibition rate (IR) on Day 29 on the basis of RTV values was calculated in accordance with the following equation. IR(%)=[1−(mean RTV value of treated group)/(mean RTV value of control group)]×100
# In a similar manner to that in Example 1, to BALB/cA Jcl-nu mice to which a human lung cancer cell line (Lu-134) had been transplanted, the FTD⋅TPI combination drug or carboplatin alone, or a combination of the two was administered, and enhancement of the anti-tumor effect was examined.
# The FTD⋅TPI combination drug (a mixture of FTD and TPI at a molar ratio of 1:0.5) was prepared for administration at doses of 75 and 150 mg/kg/day in terms of FTD. Carboplatin (Paraplatin inj., Bristol-Myers) was prepared for administration at doses of 50 and 100 mg/kg/day. The FTD⋅TPI combination drug was orally administered on Days 1 to 14 consecutively, and carboplatin was administered through the tail vein on Day 1 and Day 8. In the combination administration groups, the doses and administration schedules of the FTD⋅TPI combination drug and carboplatin were the same as those of the corresponding monotherapy groups. The TV and body weight of each group were measured on Days 4, 8, 11, 15, 19, 22, 26, and 29, and the anti-tumor effect and side effects were evaluated.
# [3] = Cisplatin tolerability (body weight) in KM20C-transplanted mice (Reference Example 2); format: in vivo, BALB/cA Jcl-nu mice
# Protocol: To BALB/cA Jcl-nu mice (8 mice in each group) to which a human colon cancer cell line KM20C had been transplanted, cisplatin was administered through the tail vein on Day 1 and Day 8. At a dose of 7 mg/kg/day, body weight reduction was 20% or less, and this dose was feasible. Accordingly, the recommended dose of cisplatin (CDDP) for mice was 7 mg/kg/day.
# [4] = system: human lung cancer cell line (Lu-134); assay: Lu-134 xenograft, FTD·TPI combination drug and cisplatin (Example 1); format: in vivo; conditions: Day 29, tail vein Day 1 and Day 8
# Protocol: A human lung cancer cell line (Lu-134) was transplanted to the right chest of 5 to 6-week-old BALB/cA Jcl-nu mice. After the tumor transplantation, the long diameter (mm) and the short diameter (mm) of the tumor were measured, and the tumor volume (TV) was calculated.
# The FTD⋅TPI combination drug (a mixture of FTD and TPI at a molar ratio of 1:0.5) was prepared for administration at doses of 75 and 150 mg/kg/day in terms of FTD. Cisplatin (Randa inj., Nippon Kayaku Co., Ltd) was prepared for administration at doses of 3.5 and 7 mg/kg/day. The FTD⋅TPI combination drug was orally administered on Days 1 to 14 consecutively, and cisplatin was administered through the tail vein on Day 1 and Day 8. In the combination administration groups, the doses and administration schedules of the FTD⋅TPI combination drug and cisplatin were the same as those of the corresponding monotherapy groups.
# as §1
# TV(mm^3)=(long diameter×short diameter^2)/2 RTV=(TV on Day 29)/(TV on Day 0)
# as §2
# To evaluate body weight reduction as an index of side effects, body weights were measured in each group on each measurement day.
# [5] = system: human gastric cancer cell line (MKN74); assay: MKN74 xenograft, FTD·TPI combination drug and oxaliplatin (Example 3-3); format: in vivo; conditions: tail vein Day 1 and Day 8; for IR (tumor growth inhibition rate) / RTV (mean ± SD): Day 29
# Protocol: (§3) In a similar manner to that in Example 1, to BALB/cA Jcl-nu mice to which a human gastric cancer cell line (MKN74) was transplanted, the FTD⋅TPI combination drug or oxaliplatin alone, or a combination of the two was administered, and enhancement of the anti-tumor effect was examined.
# (§4) The FTD⋅TPI combination drug (a mixture of FTD and TPI at a molar ratio of 1:0.5) was prepared for administration at a dose of 150 mg/kg/day in terms of FTD. Oxaliplatin (Eloxatin, Sanofi-Aventis) was prepared for administration at doses of 7 and 12 mg/kg/day. The FTD⋅TPI combination drug was orally administered on Days 1 to 14 consecutively, and oxaliplatin was administered through the tail vein on Day 1 and Day 8. In the combination administration groups, the doses and administration schedules of the FTD⋅TPI combination drug and oxaliplatin were the same as those of the corresponding monotherapy groups. The TV and body weight of each group were measured on Days 3, 7, 11, 15, 18, 22, 25, and 29, and the anti-tumor effect and side effects were evaluated.
# (§5) The number of days that elapsed until the tumor volume reached 5 times that on Day 0 (RTV5) was determined, and the growth delay effect was evaluated.
# [6] = Oxaliplatin tolerability in mice with no cancer (Reference Example 4); format: in vivo, BALB/cA Jcl-nu mice; conditions: tail vein, Day 1 and Day 8
# Protocol: To BALB/cA Jcl-nu mice with no cancer (4 mice in each group), oxaliplatin (l-OHP) was administered at 10, 12, 15, or 22.5 mg/kg/day through the tail vein on Day 1 and Day 8. In the groups treated with the doses of 15 mg/kg/day or more, strong body weight reductions of 20% or more were observed. The recommended dose of oxaliplatin for mice was thus 12 mg/kg/day.
# [7] = system: human gastric cancer cell line (MKN74/5-FU), 5-FU resistant; assay: MKN74/5-FU xenograft, FTD·TPI combination drug and oxaliplatin (Example 3-4); format: in vivo; conditions: tail vein Day 1 and Day 8; for IR (tumor growth inhibition rate) / RTV (mean ± SD): Day 29
# Protocol: as §3, with “(MKN74/5-FU) that is a 5-FU resistant cell line had been” for “(MKN74) was”
# as §4, §5
# [8] = system: human colon cancer cell strain (SW48); assay: SW48 xenograft, FTD·TPI combination drug and oxaliplatin (Example 3-2); format: in vivo; conditions: tail vein Day 1 and Day 8; for IR (tumor growth inhibition rate) / RTV (mean ± SD): Day 29
# Protocol: In a similar manner to that in Example 1, to BALB/cA Jcl-nu mice to which a human colon cancer cell strain (SW48) had been transplanted, the FTD⋅TPI combination drug or oxaliplatin alone, or a combination of the two was administered, and enhancement of the anti-tumor effect was examined.
# as §4
# The number of days that elapsed until the tumor volume reached 5 times that on Day 0 (RTV5) was determined, and the growth delay effect was evaluated (Cancer Chemother Pharmacol 57: 709-718, 2006; Int J Radiat Oncol Biol Phys 86 (3): 469-76, 2013).
# [9] = system: human colon cancer cell strain (KM20C); assay: KM20C xenograft, FTD·TPI combination drug and oxaliplatin (Example 3-1); format: in vivo; conditions: Day 15, tail vein Day 1 and Day 8
# Protocol: as §1
# IR(%)=[1−(mean RTV value of treated group)/(mean RTV value of control group)]×100
# In a similar manner to that in Example 1, to BALB/cA Jcl-nu mice to which a human colon cancer cell strain (KM20C) had been transplanted, the FTD⋅TPI combination drug or oxaliplatin alone, or a combination of the two was administered, and enhancement of the anti-tumor effect was examined.
# The FTD⋅TPI combination drug (a mixture of FTD and TPI at a molar ratio of 1:0.5) was prepared for administration at doses of 75 and 150 mg/kg/day in terms of FTD. Oxaliplatin (Eloxatin, Sanofi-Aventis) was prepared for administration at doses of 6 and 12 mg/kg/day. The FTD⋅TPI combination drug was orally administered on Days 1 to 14 consecutively, and oxaliplatin was administered through the tail vein on Day 1 and Day 8. In the combination administration groups, the doses and administration schedules of the FTD⋅TPI combination drug and oxaliplatin were the same as those of the corresponding monotherapy groups. The TV and body weight of each group were measured on Days 4, 7, 10, and 15, and the anti-tumor effect and side effects were evaluated.
compound,measurement,setting,value
"N.N.O=C([O-])C1(C(=O)[O-])CCC1.[Pt+2] [Carboplatin (CBDCA), cis-diammine (1,1-cyclobutanedicarboxylato)-platinum (II)]",body weight reductions,[1]; doses of 140 mg/kg/day or more,≥ 20%
same,death,[1]; doses of 140 mg/kg/day or more,death cases
same,recommended dose for mice,[1],100 mg/kg/day
same,IR (tumor growth inhibition rate),[2]; 50 mg/kg/day,25.3%
same,RTV (mean ± SD),[2]; 50 mg/kg/day,26.86 ± 2.44
same,IR (tumor growth inhibition rate),[2]; 100 mg/kg/day,57.2%
same,RTV (mean ± SD),[2]; 100 mg/kg/day,15.40 ± 4.38
"N.N.[Cl][Pt][Cl] [Cisplatin (CDDP), (SP-4-2)-diamminedichloroplatinum]",body weight reduction,"[3]; 7 mg/kg/day, tail vein Day 1 and Day 8",≤ 20%
same,recommended dose for mice,"[3]; tail vein, Day 1 and Day 8",7 mg/kg/day
same,IR (tumor growth inhibition rate),[4]; 3.5 mg/kg/day,21.0%
same,RTV (mean ± SD),[4]; 3.5 mg/kg/day,29.12 ± 2.79
same,IR (tumor growth inhibition rate),[4]; 7.0 mg/kg/day,49.6%
same,RTV (mean ± SD),[4]; 7.0 mg/kg/day,18.56 ± 4.64
"O=C1[O][Pt]2([NH][C@@H]3CCCC[C@H]3[NH]2)[O]C1=O [Oxaliplatin (l-OHP), [(1R,2R)-cyclohexane-1,2-diamine](ethanedioato-O,O′)platinum(II)]","RTV5 (the period, RTV reaches 5)",[5]; 7 mg/kg/day,15.8 ± 0.6^$ days
same,"RTV5 (the period, RTV reaches 5)",[5]; 12 mg/kg/day,18.5 ± 0.8^$ days
same,IR (tumor growth inhibition rate),[5]; 7 mg/kg/day,20.7%
same,RTV (mean ± SD),[5]; 7 mg/kg/day,12.67 ± 0.74
same,IR (tumor growth inhibition rate),[5]; 12 mg/kg/day,35.8%
same,RTV (mean ± SD),[5]; 12 mg/kg/day,10.25 ± 0.87
same,body weight reductions,[6]; doses of 15 mg/kg/day or more,≥ 20%
same,recommended dose for mice,[6],12 mg/kg/day
same,"RTV5 (the period, RTV reaches 5)",[7]; 7 mg/kg/day,18.6 ± 1.4^$ days
same,"RTV5 (the period, RTV reaches 5)",[7]; 12 mg/kg/day,20.1 ± 1.3^$ days
same,IR (tumor growth inhibition rate),[7]; 7 mg/kg/day,33.7%
same,RTV (mean ± SD),[7]; 7 mg/kg/day,11.23 ± 1.60
same,IR (tumor growth inhibition rate),[7]; 12 mg/kg/day,40.5%
same,RTV (mean ± SD),[7]; 12 mg/kg/day,10.08 ± 1.77
same,"RTV5 (the period, RTV reaches 5)",[8]; 7 mg/kg/day,8.9 ± 0.4 days
same,"RTV5 (the period, RTV reaches 5)",[8]; 12 mg/kg/day,10.0 ± 0.8^$ days
same,IR (tumor growth inhibition rate),[8]; 7 mg/kg/day,22.1%
same,RTV (mean ± SD),[8]; 7 mg/kg/day,47.63 ± 4.33
same,IR (tumor growth inhibition rate),[8]; 12 mg/kg/day,36.7%
same,RTV (mean ± SD),[8]; 12 mg/kg/day,"38.72 ± 3.69*^,#"
same,IR (tumor growth inhibition rate),[9]; 6 mg/kg/day,36.4%
same,RTV (mean ± SD),[9]; 6 mg/kg/day,6.99 ± 0.32
same,IR (tumor growth inhibition rate),[9]; 12 mg/kg/day,55.0%
same,RTV (mean ± SD),[9]; 12 mg/kg/day,4.94 ± 0.53
